Reference: US4354039A, “Chlorocitric acids” (Hoffmann-La Roche Inc., priority 1981, dated 1982)
Where “and” joins values, the source holds several entries; their conditions need not be identical. Equal values may be shown once. Read-outs that look alike come from different tables or passages of the source.

Assays:
isolated rat hepatocytes = experiment: Fatty acid and cholesterol synthesis and CO2 production in isolated hepatocytes (Example 23); assay type: cell-based, Female Charles River rats; details: for activity at 2000 µM: Rattus norvegicus, Hepatocyte, 1 h
Method: Female Charles River rats were fasted 48 hr, then meal-fed a 1% corn oil, 70% glucose diet for 7 to 14 days from 8 to 11 a.m. The isolated rat hepatocytes were prepared by perfusing the liver in situ. The hepatocytes were incubated in an oscillating water bath at 37° C. for 60 min. […] All incubations were done in triplicate and all experiments were repeated at least twice. […] The contents of the center well were transferred to scintillation counting fluid and ^14 CO2 content was determined. […] The media was then acidified, extracted with hexane, and the extract counted (to determine the rate of lipogenesis). The conversion of ^3 H2 O and [^14 C]alanine into fatty acids or sterols was determined in a PDS/3, Mark II liquid scintillation counting system.

[1] = Effect of stereoisomers on food consumption of meal-fed rats (Example 14); assay type: in vivo, Charles River female rats
Method: Animals were fasted 48 hr, then meal-fed the 70% glucose diet described by A. C. […] Following 5 to 12 days alimentation on the meal-feeding regimen, rats were dosed with the appropriate compounds orally by intubation 1/2 hr before the 3 hr meal. Food cups were weighed immediately after the meal. The control group consisted of 5 to 10 rats, while the experimental group consisted of 4 to 6 rats.

[2] = Food intake in dogs, pyramiding oral doses (Examples 26 and 27); assay type: in vivo, beagle dogs
Method: Twelve beagle dogs of both sexes weighing 7.6-12.2 kg were used for this test. The test compounds were contained in gelatin capsules for oral administration to two dogs of each sex. The animals were weighed and food consumption calculated daily excluding weekends throughout the test period. Each animal received 800 grams of diet daily consisting of 400 grams of Wayne pellet dog food mixed with 400 ml distilled water. The animals received pyramiding oral doses of the test compound over the three week period. On Monday and Tuesday of the first week the animals were weighed and food consumption was recorded (control). […] Doses of 30, 100 and 300 mg/kg were administered on Monday, Wednesday and Friday respectively during the second week. A final dose of 1000 mg/kg was administered on Monday of the third week.
Food intake was determined by the procedure at pyramiding doses described in EXAMPLE 26.

[3] = test day 8, dose 100 mg/kg oral
[4] = test day 10, dose 300 mg/kg oral
[5] = test day 13, dose 1000 mg/kg oral

SMILES: O=C(O)C[C@@](O)(C(=O)O)[C@@H](Cl)C(=O)O [(-)-threo-Chlorocitric acid]
- CO2 Production, [14C]alanine converted (isolated rat hepatocytes; 2 mM, 60 min, 37° C., 2000 µM): 91 % of control
- Cholesterol Synthesis, [14C]alanine converted (isolated rat hepatocytes; 2 mM, 60 min, 37° C., 2000 µM): 92 % of control
- Fatty Acid Synthesis, 3H2O converted (isolated rat hepatocytes; 2 mM, 60 min, 37° C., 2000 µM): 95 % of control
- Fatty Acid Synthesis, [14C]alanine converted (isolated rat hepatocytes; 2 mM, 60 min, 37° C., 2000 µM): 124 % of control and 96 % of control
- activity at 2000 µM (isolated rat hepatocytes; 2 mM, 60 min, 37° C., read-out: CO2 Production, [14C]alanine converted): 83%
- activity at 2000 µM (isolated rat hepatocytes; 2 mM, 60 min, 37° C., read-out: Cholesterol Synthesis, 3H2O converted): 116%
- activity at 2000 µM (isolated rat hepatocytes; 2 mM, 60 min, 37° C., read-out: Cholesterol Synthesis, [14C]alanine converted): 88%
- activity at 2000 µM (isolated rat hepatocytes; 2 mM, 60 min, 37° C., read-out: Fatty Acid Synthesis, 3H2O converted): 106%
- inhibition of lipid (fatty acid) and cholesterol syntheses (isolated rat hepatocytes; in words): devoid of metabolic activity as an inhibitor of lipid and cholesterol syntheses
- Food Consumption, % of control ([1]; 0.66 mmoles/kg oral): 59 % of control
- Food Consumption, % of control ([1]; 2.63 mmoles/kg oral): 16 % of control
- Food Consumption ([2]; test day 1, dose 3 mg/kg oral): 450 ± 165 g
- Food Consumption, % of control ([2]; test day 1, dose 3 mg/kg oral): 60 % of control
- Food Consumption ([2]; test day 2, no dose): 646 ± 83 g
- Food Consumption, % of control ([2]; test day 2, no dose): 87 % of control
- Food Consumption ([2]; test day 3, dose 10 mg/kg oral): 440 ± 121 g
- Food Consumption, % of control ([2]; test day 3, dose 10 mg/kg oral): 59 % of control
- Food Consumption ([2]; test day 6, dose 30 mg/kg oral): 406 ± 86 g
- Food Consumption, % of control ([2]; test day 6, dose 30 mg/kg oral): 55 % of control
- Food Consumption ([2]; test day 7, no dose): 668 ± 115 g
- Food Consumption, % of control ([2]; test day 7, no dose): 90 % of control
- Food Consumption [2, 3]: 142 ± 38 g
- Food Consumption, % of control [2, 3]: 19 % of control
- Food Consumption ([2]; test day 9, no dose): 619 ± 62 g
- Food Consumption, % of control ([2]; test day 9, no dose): 83 % of control
- Food Consumption [2, 4]: 55 ± 39 g
- Food Consumption, % of control [2, 4]: 7 % of control
- Food Consumption [2, 5]: 56 ± 22 g
- Food Consumption, % of control [2, 5]: 8 % of control
- Food Consumption ([2]; test day 14, no dose): 439 ± 163 g
- Food Consumption, % of control ([2]; test day 14, no dose): 59 % of control
- Food Consumption ([2]; test day 15, no dose): 583 ± 149 g
- Food Consumption, % of control ([2]; test day 15, no dose): 78 % of control
- Food Consumption ([2]; test day 16, no dose): 600 ± 76 g
- Food Consumption, % of control ([2]; test day 16, no dose): 81 % of control
- Food Consumption ([2]; test day 17, no dose): 677 ± 73 g
- Food Consumption, % of control ([2]; test day 17, no dose): 91 % of control
- Food Consumption ([2]; test day 21, no dose): 644 ± 100 g
- Food Consumption, % of control ([2]; test day 21, no dose): 87 % of control
- Food Consumption ([2]; test day 22, no dose): 800 ± 0 g
- Food Consumption, % of control ([2]; test day 22, no dose): 108 % of control
- Food Consumption ([2]; test day 23, no dose): 596 ± 121 g
- Food Consumption, % of control ([2]; test day 23, no dose): 80 % of control
- Food Consumption ([2]; test day 24, no dose): 695 ± 79 g
- Food Consumption, % of control ([2]; test day 24, no dose): 94 % of control
- Food Consumption ([2]; test day 27, no dose): 732 ± 68 g
- Food Consumption, % of control ([2]; test day 27, no dose): 99 % of control
- Food Consumption ([2]; test day 28, no dose): 775 ± 26 g
- Food Consumption, % of control ([2]; test day 28, no dose): 104 % of control
